Reference: US8716292B2, “Riminophenazines with 2-(heteroaryl)amino substituents and their anti-microbial activity” (priority 2010, dated 2014)
Converted amounts (≈) assume the structure as drawn.

Each compound was assayed on Mycobacterium tuberculosis H37Rv strains (assay: In vitro assay for antimicrobial susceptibility (microplate Alamar blue MIC)). Details: Mycobacterium tuberculosis, H37RV, 7H9, Alamar blue, inhibition ≧90%; read-out: MIC (μg/mL) against H37Rv.
Type: cell-based
With `CC(C)/N=c1\cc2n(-c3ccc(OC(F)(F)F)cc3)c3ccccc3nc-2cc1Nc1ccccn1` [TBI-952, 5-(4-Trifluoromethoxyphenyl)-3-(1-methylethyl)imino-2-(2-pyridyl)amino-3,5-dihydrophenazine] the MIC was 0.093 µg/mL (≈ 0.19 µM). `COC1CCC(/N=c2\cc3n(-c4ccc(F)c(F)c4)c4ccccc4nc-3cc2Nc2cnccn2)CC1` (centres unmarked) [TBI-1445, 5-(3,4-Difluorophenyl)-3-(4-methoxycyclohexyl)imino-2-(pyrazin-2-yl)amino-3,5-dihydrophenazine] showed an MIC of 0.056 µg/mL (≈ 0.109 µM). Compound `Clc1ccc(-n2c3c/c(=N\C4CCCCC4)c(Nc4cncnc4)cc-3nc3ccccc32)cc1` [TBI-961, 5-(4-Chlorophenyl)-3-cyclohexylimino-2-(pyrimidin-5-yl)amino-3,5-dihydrophenazine] has an MIC of 0.015 µg/mL (≈ 0.0312 µM). `CC(C)/N=c1\cc2n(-c3ccc(F)c(F)c3)c3ccccc3nc-2cc1Nc1ncccc1C#N` [TBI-1438, 5-(3,4-Difluorophenyl)-3-(1-methylethyl)imino-2-(3-cyano-2-pyridyl)amino-3,5-dihydrophenazine] showed an MIC of 0.053 µg/mL (≈ 0.114 µM). With `CC(C)/N=c1\cc2n(-c3ccc(OC(F)(F)F)cc3)c3ccccc3nc-2cc1Nc1ncccc1[N+](=O)[O-]` [TBI-954, 5-(4-Trifluoromethoxyphenyl)-3-(1-methylethyl)imino-2-(3-nitro-2-pyridyl)amino-3,5-dihydrophenazine] the MIC was 0.03 µg/mL (≈ 0.0561 µM). `N#Cc1cccnc1Nc1cc2nc3ccccc3n(-c3ccc(F)cc3)c-2c/c1=N\C1CCOCC1` [TBI-1086, 5-(4-Fluorophenyl)-3-(4-tetrahydropyranyl)imino-2-(3-cyano-2-pyridyl)amino-3,5-dihydrophenazine] showed an MIC of 0.04 µg/mL (≈ 0.0815 µM).

Same assay, conditions: Mycobacterium tuberculosis, H37RV, in vitro, Mycobacterium tuberculosis H37Rv strains; read-out: MIC (μg/mL) against H37Rv
`Clc1ccc(-n2c3c/c(=N\C4CCOCC4)c(Nc4cncc(Br)c4)cc-3nc3ccccc32)cc1` [TBI-880, 5-(4-Chlorophenyl)-3-(4-tetrahydropyranyl)imino-2-(5-bromo-3-pyridyl)amino-3,5-dihydrophenazine] was tested, and the MIC was 0.036 µg/mL (≈ 0.0642 µM). Work on `COc1ncccc1Nc1cc2nc3cc(F)ccc3n(-c3ccc(Cl)c(Cl)c3)c-2c/c1=N\C1CC1` [TBI-875, 8-Fluoro-5-(3,4-dichlorophenyl)-3-cyclopropylimino-2-(2-methoxy-3-pyridyl)amino-3,5-dihydrophenazine] yielded an MIC of 0.047 µg/mL (≈ 0.0903 µM). `Cc1ncccc1Nc1cc2nc3ccccc3n(-c3ccc(C(F)(F)F)cc3)c-2c/c1=N\C1CCOCC1` [TBI-707, 5-(4-Trifluoromethylphenyl)-3-(4-tetrahydropyranyl)imino-2-(2-methyl-3-pyridyl)amino-3,5-dihydrophenazine] gave an MIC of 0.011 µg/mL (≈ 0.0208 µM). For `Cc1ccc(-n2c3c/c(=N\C(C)C)c(Nc4cccnc4C)cc-3nc3ccccc32)cc1` [TBI-321, 5-(4-Methylphenyl)-3-(1-methylethyl)imino-2-(2-methyl-3-pyridyl)amino-3,5-dihydrophenazine], the MIC was 0.419 µg/mL (≈ 0.966 µM). In the case of `COc1ncccc1Nc1cc2nc3ccccc3n(-c3ccc(Br)cc3)c-2c/c1=N\C1CCOCC1` [TBI-518, 5-(4-Bromophenyl)-3-(4-tetrahydropyranyl)imino-2-(2-methoxy-3-pyridyl)amino-3,5-dihydrophenazine], the MIC is reported as 0.02 µg/mL (≈ 0.0359 µM). `COc1ncccc1Nc1cc2nc3ccccc3n(-c3ccc(Cl)cc3Cl)c-2c/c1=N\C1CCC(OC)CC1` (centres unmarked) [TBI-371, 5-(2,4-Dichlorophenyl)-3-(4-methoxycyclohexyl)imino-2-(2-methoxy-3-pyridyl)amino-3,5-dihydrophenazine] was tested, and the MIC was 0.044 µg/mL (≈ 0.0766 µM). Work on `Cc1ccc(Nc2cc3nc4ccccc4n(-c4ccc(F)cc4)c-3c/c2=N\C2CCC2)cn1` [TBI-1017] yielded an MIC of 0.056 µg/mL (≈ 0.125 µM). For `Cc1ccc(-n2c3c/c(=N\C4CCC(O)CC4)c(Nc4cccnc4)cc-3nc3ccccc32)cc1` (centres unmarked) [TBI-338, 5-(4-Methylphenyl)-3-(4-hydroxycyclohexyl)imino-2-(3-pyridyl)amino-3,5-dihydrophenazine], the MIC was 0.5 µg/mL (≈ 1.05 µM). Compound `CC(=O)Nc1ccc(Nc2cc3nc4ccccc4n(-c4ccc(F)cc4)c-3c/c2=N\C2CCN(C)CC2)cn1` [TBI-912, 5-(4-Fluorophenyl)-3-(N-methyl-4-piperidyl)imino-2-(6-acetamino-3-pyridyl)amino-3,5-dihydrophenazine] has an MIC of 0.351 µg/mL (≈ 0.655 µM). Work on `COc1ncccc1Nc1cc2nc3ccc(F)cc3n(-c3ccc(Cl)c(Cl)c3)c-2c/c1=N\C1CCOCC1` [TBI-884, 7-Fluoro-5-(3,4-dichlorophenyl)-3-(4-tetrahydropyranyl)imino-2-(2-methoxy-3-pyridyl)amino-3,5-dihydrophenazine] yielded an MIC of 0.5 µg/mL (≈ 0.886 µM). For `Brc1ccc(-n2c3c/c(=N\C4CCOCC4)c(Nc4cccnc4)cc-3nc3ccccc32)cc1` [TBI-093, 5-(4-Bromophenyl)-3-(4-tetrahydropyranyl)imino-2-(3-pyridyl)amino-3,5-dihydrophenazine], the MIC was 0.163 µg/mL (≈ 0.31 µM). Work on `COc1ncccc1Nc1cc2nc3cc(F)ccc3n(-c3ccc(Cl)cc3)c-2c/c1=N\C1CCC(OC)CC1` (centres unmarked) [TBI-936, 8-Fluoro-5-(4-chlorophenyl)-3-(4-methoxycyclohexyl)imino-2-(2-methoxy-3-pyridyl)amino-3,5-dihydrophenazine] yielded an MIC of 0.06 µg/mL (≈ 0.108 µM). In the case of `Cc1ccc(Nc2cc3nc4cc(F)ccc4n(-c4ccc(OC(F)(F)F)cc4)c-3c/c2=N\C(C)C)cn1` [TBI-863, 8-Fluoro-5-(4-trifluoromethoxyphenyl)-3-(1-methylethyl)imino-2-(6-methyl-3-pyridyl)amino-3,5-dihydrophenazine], the MIC is reported as 0.061 µg/mL (≈ 0.117 µM). For `COc1ncccc1Nc1cc2nc3ccc(F)cc3n(-c3ccc(OC(F)(F)F)cc3)c-2c/c1=N\C(C)C` [TBI-858, 7-Fluoro-5-(4-trifluoromethoxyphenyl)-3-(1-methylethyl)imino-2-(2-methoxy-3-pyridyl)amino-3,5-dihydrophenazine], the MIC was 0.08 µg/mL (≈ 0.149 µM). `Cc1ccc(Nc2cc3nc4ccccc4n(-c4ccccc4)c-3c/c2=N\C2CCC2)cn1` [TBI-506, 5-Phenyl-3-cyclobutylimino-2-(6-methyl-3-pyridyl)amino-3,5-dihydrophenazine] gave an MIC of 0.05 µg/mL (≈ 0.116 µM). `Cc1cncc(Nc2cc3nc4ccccc4n(-c4ccc(C(F)(F)F)cc4)c-3c/c2=N\C2CC2)c1` [TBI-725, 5-(4-Trifluoromethylphenyl)-3-cyclopropylimino-2-(5-methyl-3-pyridyl)amino-3,5-dihydrophenazine] showed an MIC of 0.031 µg/mL (≈ 0.0638 µM). `O[C@H]1CC[C@H](/N=c2\cc3n(-c4cccc(Cl)c4)c4ccccc4nc-3cc2Nc2cccnc2)CC1` [TBI-811, 5-(3-Chlorophenyl)-3-(1′,4′-trans-4-hydroxycyclohexyl)imino-2-(3-pyridyl)amino-3,5-dihydrophenazine] gave an MIC of 0.5 µg/mL (≈ 1.01 µM). `COc1ncccc1Nc1cc2nc3ccccc3n(-c3ccccc3)c-2c/c1=N\C1CCCCC1` [TBI-079, 5-Phenyl-3-cyclohexylimino-2-(2-methoxy-3-pyridyl)amino-3,5-dihydrophenazine] gave an MIC of 0.068 µg/mL (≈ 0.143 µM). `Cc1ccc(-n2c3c/c(=N\C4CCOCC4)c(Nc4cncc(C)c4)cc-3nc3ccccc32)cc1` [TBI-328, 5-(4-Methylphenyl)-3-(4-tetrahydropyranyl)imino-2-(5-methyl-3-pyridyl)amino-3,5-dihydrophenazine] showed an MIC of 0.037 µg/mL (≈ 0.0778 µM). `Cc1ncccc1Nc1cc2nc3ccccc3n(-c3ccc(C(F)(F)F)cc3)c-2c/c1=N\C1CC1` [TBI-729] was tested, and the MIC was 0.186 µg/mL (≈ 0.383 µM). `COc1ncccc1Nc1cc2nc3ccccc3n(-c3ccccc3)c-2c/c1=N\C(C)C` [TBI-061, 5-Phenyl-3-(1-methylethyl)imino-2-(2-methoxy-3-pyridyl)amino-3,5-dihydrophenazine] was tested, and the MIC was 0.06 µg/mL (≈ 0.138 µM). With `Cc1ccc(Nc2cc3nc4ccccc4n(-c4ccc(Cl)c(Cl)c4)c-3c/c2=N\C2CCOCC2)cn1` [TBI-945, 5-(3,4-Dichlorophenyl)-3-(4-tetrahydropyranyl)imino-2-(6-methyl-3-pyridyl)amino-3,5-dihydrophenazine] the MIC was 0.25 µg/mL (≈ 0.471 µM). Work on `COc1ncccc1Nc1cc2nc3ccccc3n(-c3ccc(F)c(F)c3)c-2c/c1=N\C1CCCCC1` [TBI-531, 5-(3,4-Difluorophenyl)-3-cyclohexylimino-2-(2-methoxy-3-pyridyl)amino-3,5-dihydrophenazine] yielded an MIC of 0.03 µg/mL (≈ 0.0586 µM). For `COc1ncccc1Nc1cc2nc3ccccc3n(-c3ccc(C)cc3)c-2c/c1=N\C1CCC(OC)CC1` (centres unmarked) [TBI-309, 5-(4-Methylphenyl)-3-(4-methoxycyclohexyl)imino-2-(2-methoxy-3-pyridyl)amino-3,5-dihydrophenazine], the MIC was 0.06 µg/mL (≈ 0.115 µM). `COc1ccc(Nc2cc3nc4ccccc4n(-c4ccc(F)cc4)c-3c/c2=N\[C@H]2CC[C@H](OC)CC2)cn1` [TBI-933, 5-(4-Fluorophenyl)-3-(1′,4′-trans-4-methoxycyclohexyl)imino-2-(6-methoxy-3-pyridyl)amino-3,5-dihydrophenazine] showed an MIC of 0.175 µg/mL (≈ 0.334 µM). `Clc1ccc(-n2c3c/c(=N\C4CCSCC4)c(Nc4cccnc4)cc-3nc3ccccc32)cc1` [TBI-458] gave an MIC of 0.018 µg/mL (≈ 0.0361 µM). `Cc1ccc(-n2c3c/c(=N\C4CC4)c(Nc4cccnc4)cc-3nc3ccccc32)cc1` [TBI-349, 5-(4-Methylphenyl)-3-cyclopropylimino-2-(3-pyridyl)amino-3,5-dihydrophenazine] showed an MIC of 0.0075 µg/mL (≈ 0.018 µM). `COC1CCC(/N=c2\cc3n(-c4ccccc4)c4ccccc4nc-3cc2Nc2cccnc2C)CC1` (centres unmarked) [TBI-076] gave an MIC of 0.042 µg/mL (≈ 0.0858 µM). `COc1ccc(Nc2cc3nc4ccccc4n(-c4ccc(C)cc4)c-3c/c2=N\C(C)C)cn1` [TBI-356, 5-(4-Methylphenyl)-3-(1-methylethyl)imino-2-(6-methoxy-3-pyridyl)amino-3,5-dihydrophenazine] gave an MIC of 0.459 µg/mL (≈ 1.02 µM). Work on `Cc1ccc(Nc2cc3nc4ccccc4n(-c4ccc(F)cc4)c-3c/c2=N\C2CCCCC2)cn1` [TBI-905, 5-(4-Fluorophenyl)-3-cyclohexylimino-2-(6-methyl-3-pyridyl)amino-3,5-dihydrophenazine] yielded an MIC of 0.057 µg/mL (≈ 0.119 µM). Compound `COC1CCC(/N=c2\cc3n(-c4cccc(OC(F)(F)F)c4)c4ccccc4nc-3cc2Nc2cccnc2)CC1` (centres unmarked) [TBI-1024, 5-(3-Trifluoromethoxyphenyl)-3-(4-methoxycyclohexyl)imino-2-(3-pyridyl)amino-3,5-dihydrophenazine] has an MIC of 0.112 µg/mL (≈ 0.2 µM). Compound `COC1CCC(/N=c2\cc3n(-c4ccc(C(F)(F)F)cc4)c4ccccc4nc-3cc2Nc2ccc(NC(C)=O)nc2)CC1` (centres unmarked) [TBI-715, 5-(4-Trifluoromethylphenyl)-3-(4-methoxycyclohexyl)imino-2-(6-acetamino-3-pyridyl)amino-3,5-dihydrophenazine] has an MIC of 0.06 µg/mL (≈ 0.0999 µM).
